Where “and” joins values, the source holds several entries; their conditions need not be identical. Identical values can stand only once.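 Five concentrations, 48 hours, 96-well plates. Here, GI50 denotes the concentration required for 50% inhibition of growth. The concentration for full growth arrest is given as TGI.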
Experiments:
Test in all cases: growth of human tumour cells (NCI), 48 h
SK-MEL-28 melanoma = tested on: SK-MEL-28 melanoma
KM12 colon = tested on: KM12 colon
LOX IMVI melanoma = tested on: LOX IMVI melanoma
SNB-75 CNS = tested on: SNB-75 CNS
EKVX NSCLC = tested on: EKVX NSCLC
SF-295 CNS = tested on: SF-295 CNS
M14 melanoma = tested on: M14 melanoma
MDA-MB-435 = tested on: MDA-MB-435
BT-549 breast = tested on: BT-549 breast
UO-31 renal = tested on: UO-31 renal
RPMI-8226 leukemia = tested on: RPMI-8226 leukemia
HOP-62 NSCLC = tested on: HOP-62 NSCLC
HCT-15 colon = tested on: HCT-15 colon
SF-268 CNS = tested on: SF-268 CNS
SR leukemia = tested on: SR leukemia
NCI-H23 lung = tested on: NCI-H23 lung
U251 CNS = tested on: U251 CNS
NCI-H522 lung = tested on: NCI-H522 lung
UACC-62 melanoma = tested on: UACC-62 melanoma
HCC-2998 colon = tested on: HCC-2998 colon
K-562 leukemia = tested on: K-562 leukemia
HCT-116 colon = tested on: HCT-116 colon
UACC-257 melanoma = tested on: UACC-257 melanoma
HS 578T breast = tested on: HS 578T breast
MDA-MB-231 breast = tested on: MDA-MB-231 breast
DU-145 prostate = tested on: DU-145 prostate
SF-539 CNS = tested on: SF-539 CNS
NCI/ADR-RES ovarian = tested on: NCI/ADR-RES ovarian
COLO 205 colon = tested on: COLO 205 colon

## CN1CCN(c2nc(C3=C(c4c[nH]c5ccccc45)C(=O)NC3=O)c3ccccc3n2)CC1
SK-MEL-28 melanoma
  GI50: 11.2 µM and 17.7 µM
  TGI: 20.8 µM and 32.8 µM
KM12 colon
  GI50: 4.43 µM and 4.8 µM
  TGI: 65 µM and 24.3 µM
LOX IMVI melanoma
  GI50: 13.1 µM and 17.3 µM
  TGI: 24.5 µM and 36.4 µM
SNB-75 CNS
  GI50: 4.91 µM and 5.65 µM
  TGI: 17.5 µM and 21.6 µM
EKVX NSCLC
  GI50: 20.4 µM
  TGI: 65 µM
SF-295 CNS
  GI50: 12.2 µM and 19.6 µM
  TGI: 25.9 µM and 37.8 µM
M14 melanoma
  GI50: 10.5 µM and 17 µM
  TGI: 20.5 µM and 37.6 µM
MDA-MB-435
  GI50: 9.08 µM and 12.4 µM
  TGI: 19.4 µM and 26.1 µM
BT-549 breast
  GI50: 8.91 µM and 14.3 µM
  TGI: 20.8 µM and 29.3 µM
UO-31 renal
  GI50: 8.2 µM and 11.7 µM
  TGI: 65 µM and 30.1 µM
RPMI-8226 leukemia
  GI50: 12.6 µM
  TGI: 37.6 µM
HOP-62 NSCLC
  GI50: 13.6 µM and 19.8 µM
  TGI: 65 µM and 42.9 µM
HCT-15 colon
  GI50: 12.9 µM and 19.5 µM
  TGI: 60.2 µM and > 100 µM
SF-268 CNS
  GI50: 17.2 µM and 17.7 µM
  TGI: 40.6 µM and 36.6 µM
SR leukemia
  GI50: 11.6 µM
  TGI: 36.2 µM
NCI-H23 lung
  GI50: 14.8 µM and 17.6 µM
  TGI: 39.9 µM and 41.4 µM
U251 CNS
  GI50: 22.5 µM and 13.4 µM
  TGI: 65 µM and 27.7 µM
NCI-H522 lung
  GI50: 11.3 µM and 15.1 µM
  TGI: 23.7 µM and 32.9 µM
UACC-62 melanoma
  GI50: 14.4 µM and 16.2 µM
  TGI: 35.2 µM and 30.7 µM
HCC-2998 colon
  GI50: 11.2 µM and 19 µM
  TGI: 22.6 µM and 36.7 µM
K-562 leukemia
  GI50: 11.9 µM and 12.6 µM
  TGI: 65 µM and 49.2 µM
HCT-116 colon
  GI50: 10.3 µM and 9.78 µM
  TGI: 31.9 µM and 37.9 µM
UACC-257 melanoma
  GI50: 11.2 µM and 15.7 µM
  TGI: 23.1 µM and 31.3 µM
HS 578T breast
  GI50: 9.01 µM and 14.6 µM
  TGI: 27 µM and 38.3 µM
MDA-MB-231 breast
  GI50: 22.2 µM and 17.3 µM
  TGI: 60.6 µM and 39.4 µM
DU-145 prostate
  GI50: 23.3 µM and 17.9 µM
  TGI: 65 µM and 38 µM
SF-539 CNS
  GI50: 10.5 µM and 16.8 µM
  TGI: 19.7 µM and 32.9 µM
NCI/ADR-RES ovarian
  GI50: 25.4 µM
  TGI: 65 µM
COLO 205 colon
  GI50: 8 µM and 11.4 µM
  TGI: 17.3 µM and 24.5 µM

— PubChem BioAssay (NCI)
